One may read the solubility as the concentration that dissolves in the medium under given conditions. Read a high solubility as much dissolved substance. By logD is commonly meant lipophilicity at a set pH, counting ionised and neutral species. Read a low logD as a more hydrophilic compound. What is called Ki is the equilibrium dissociation constant of an inhibitor or competing ligand from its target. A higher Ki goes with weaker binding.

The nature of data set [1]: Solubility in buffer at pH 7.4. In kind it is physicochemical.
A short description of data set [2]: Partition coefficient in Chloroform-buffer at pH 7.4. In kind it is physicochemical.
Another data set has as its target T1, Carbonic anhydrase 4 (Bos taurus, UniProt Q95323).
T1 sequence (Q95323 whole entry): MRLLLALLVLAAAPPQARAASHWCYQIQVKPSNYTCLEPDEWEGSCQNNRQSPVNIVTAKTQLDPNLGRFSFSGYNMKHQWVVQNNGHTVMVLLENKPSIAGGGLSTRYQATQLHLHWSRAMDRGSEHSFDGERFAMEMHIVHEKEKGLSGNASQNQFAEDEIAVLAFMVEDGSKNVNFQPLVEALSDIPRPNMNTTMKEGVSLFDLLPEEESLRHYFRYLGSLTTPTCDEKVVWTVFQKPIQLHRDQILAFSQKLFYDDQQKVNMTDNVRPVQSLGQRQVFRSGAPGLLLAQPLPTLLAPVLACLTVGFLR

For the next data set, the target named is Carbonic anhydrase 1 (Homo sapiens, UniProt P00915).
A short description of data set [3]: Solubility in chloroform buffer at pH 7.4. Format: physicochemical.
Assay in data set [4]: not given
This is another data set of the same source.

Data set [5] is described as follows: Solubility in Chloroform buffer at pH 7.4. Format: physicochemical.
The conditions of data set [6]: octanol/water.
Assay in data set [7]: not given
This is another data set of the same source.

Assay in data set [8]: not given
This is another data set of the same source.

The nature of a further data set: physchem. To be noted: buffer, pH 5.5.
The species named for data set [9] is Oryctolagus cuniculus.
Data set [10] is filed under the species Oryctolagus cuniculus. This is another data set of the same source.
The species entered for data set [11] is Oryctolagus cuniculus. This is another data set of the same source.
The species named for data set [12] is Oryctolagus cuniculus. This is another data set of the same source.

In brackets after ≈: the same amount, converted by molar mass.

Chain of Carbonic anhydrase 1 (P00915 whole entry): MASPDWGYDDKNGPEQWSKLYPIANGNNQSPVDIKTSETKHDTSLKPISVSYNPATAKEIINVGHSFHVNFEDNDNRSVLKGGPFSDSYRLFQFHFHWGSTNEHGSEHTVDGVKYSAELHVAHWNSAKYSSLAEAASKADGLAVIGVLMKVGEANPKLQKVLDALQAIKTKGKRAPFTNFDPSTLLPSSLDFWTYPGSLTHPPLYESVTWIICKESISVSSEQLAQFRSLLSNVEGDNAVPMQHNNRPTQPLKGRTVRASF
Description for Carbonic anhydrase 1: Inhibitory activity against Human carbonic anhydrase I
Description for Carbonic anhydrase 4: Inhibitory activity against bovine carbonic anhydrase IV
Description for physchem: Solubility in buffer at pH 5.5

`NS(=O)(=O)c1nc2ccc(OCCOC(=O)CN(CC(=O)O)CC(=O)O)cc2s1`: the solubility in [1] worked out at 37 mM (≈ 16.6 mg/mL). This molecule also yielded a logD in data set [2] of 1.925. For the same molecule, the inhibitory constant (Ki) at Carbonic anhydrase 4 was 0.01 µM; at Carbonic anhydrase 1 it was 0.044 µM.

Consider `NS(=O)(=O)c1nnc(NC(=O)CCNC(=O)CNCC(=O)O)s1`, for which the “Kin x10e3” value came out at 4.6 hr-1. Further, the solubility in [3] came out at 62 mM (≈ 22.7 mg/mL). In data set [2], the log distribution coefficient (logD) was determined as 1.23. The Ki at Carbonic anhydrase 4 was found to be 0.048 µM. At Carbonic anhydrase 1, this molecule displayed a Ki of 0.28 µM. Moreover, the “Kin x10e3” value in data set [4] is 2.5 hr-1.

As for `NS(=O)(=O)c1cc(S(N)(=O)=O)c(NC(=O)CN(CCN(CC(=O)O)CC(=O)Nc2c(S(N)(=O)=O)cc(S(N)(=O)=O)c(Cl)c2Cl)CC(=O)O)c(Cl)c1Cl`, the “Kin x10e3” value came to 7 hr-1. The concentration in solution in data set [5] (solubility) was 32 mM (≈ 28.7 mg/mL). For the same molecule, on Carbonic anhydrase 4, the affinity, expressed as Ki, was 0.051 µM. For the same molecule, the affinity on Carbonic anhydrase 1, expressed as Ki, was 0.065 µM. For the same molecule, the “Kin x10e3” value in [4] is on record as 3.6 hr-1. In [6], this molecule came in with a logD of 1.764.

As for `NS(=O)(=O)c1nc2ccc(OC(=O)CNCCNCC(=O)O)cc2s1`, the inhibitory constant (Ki) on Carbonic anhydrase 4 is 0.011 µM; on Carbonic anhydrase 1 it was 0.045 µM. Besides, the “Kin x10e3” value in data set [7] is 8.4 hr-1; in data set [8], 4.7 hr-1. Also, the logD in data set [6] was 1.166. The same molecule returned a solubility in the data set “physchem” of 44 mM (≈ 17.1 mg/mL).

With `NS(=O)(=O)C1N=NC(NC(=O)CN(CCN(CCN(CC(=O)O)CC(=O)NC2N=NC(S(N)(=O)=O)S2)CC(=O)O)CC(=O)O)S1` (configuration not stated), at Carbonic anhydrase 4, the inhibitory constant (Ki) is 0.007 µM. Besides, the “Kin x10e3” value in data set [7] was found to be 6.2 hr-1; in [8] it was 3.9 hr-1. This molecule registered a logD in data set [6] of 1.961. In the data set “physchem”, this molecule gave a solubility of 54 mM (≈ 39 mg/mL).

“(Carboxymethyl-{2-[2-(2-{carboxymethyl-[(5-sulfamoyl-[1,3,4]thiadiazol-2-ylcarbamoyl)-methyl]-amino}-ethoxy)-ethoxy]-ethyl}-amino)-acetic acid; compound with Cu complex”: the Delta IOP is 0 mmHg in the data set listed under Oryctolagus cuniculus [9], 4.7 mmHg in the data set filed under Oryctolagus cuniculus [10], 9.6 mmHg in the data set filed under Oryctolagus cuniculus [11] and 13.5 mmHg in the data set filed under Oryctolagus cuniculus [12].

`NS(=O)(=O)c1nnc(NC(=O)CCNC(=O)CN(CCN(CC(=O)O)CC(=O)NCCC(=O)Nc2nnc(S(N)(=O)=O)s2)CC(=O)O)s1`: the “Kin x10e3” value was found to be 5.9 hr-1. In data set [1], this molecule returned a solubility of 46 mM (≈ 34.9 mg/mL). The Ki at Carbonic anhydrase 4 was found to be 0.01 µM. Moreover, affinity at Carbonic anhydrase 1 was put at a Ki of 0.125 µM. Moreover, in [4], the “Kin x10e3” value was 3 hr-1. In addition, the pH-dependent lipophilicity (logD) in data set [6] worked out at 1.15.

For `NS(=O)(=O)c1nnc(NC(=O)CN(CCN(CCN(CC(=O)O)CC(=O)O)CC(=O)O)CC(=O)O)s1`, the “Kin x10e3” value stood at 8.1 hr-1. The amount in solution in [5] (solubility) came to 59 mM (≈ 32.8 mg/mL). Besides, on Carbonic anhydrase 4, the affinity corresponds to a Ki of 0.028 µM. For the same molecule, the “Kin x10e3” value in [4] is recorded as 4.3 hr-1. For the same molecule, the log distribution coefficient (logD) in data set [6] is 1.375.

Consider `NS(=O)(=O)c1nnc(NC(=O)CN(CCOCCOCCN(CC(=O)O)CC(=O)O)CC(=O)O)s1`, for which the Ki came to 0.021 µM at Carbonic anhydrase 4 and 0.054 µM on Carbonic anhydrase 1. The figures for the “Kin x10e3” value in data set [7] and in [8] were 8.4 hr-1 and 4.6 hr-1, respectively. In data set [6], this molecule came in with a logD of 1.446. Also, the solubility in the data set “physchem” came to 52 mM (≈ 28.2 mg/mL).

Turning to `NS(=O)(=O)c1ccc(NC(=O)CN(CCOCCOCCN(CC(=O)O)CC(=O)Nc2ccc(S(N)(=O)=O)cc2F)CC(=O)O)c(F)c1`, the inhibitory constant (Ki) at Carbonic anhydrase 4 came to 0.016 µM; at Carbonic anhydrase 1 it was 0.155 µM. The results for the “Kin x10e3” value in data set [7] and in data set [8] were 8.3 hr-1 and 4.5 hr-1, respectively. The logD in data set [6] amounted to 1.534. In “physchem”, this molecule gave a solubility of 47 mM (≈ 34.1 mg/mL).

As for `NS(=O)(=O)c1ccc(NC(=O)CN(CCOCCOCCN(CC(=O)O)CC(=O)O)CC(=O)O)c(Br)c1`, the inhibition constant Ki was determined as 0.032 µM at Carbonic anhydrase 4 and 0.078 µM at Carbonic anhydrase 1. Besides, the “Kin x10e3” value in data set [7] was found to be 6.5 hr-1; in data set [8] it was 3.3 hr-1. In data set [6], this molecule showed a logD of 1.747. In addition, the solubility in “physchem” is 50 mM (≈ 30.7 mg/mL).

Take `NS(=O)(=O)c1nnc(NC(=O)CCNC(=O)CN(CCN(CC(=O)O)c2ccccc2O)c2ccccc2O)s1`: the “Kin x10e3” value came out at 10.7 hr-1. In data set [5], this molecule came in with a solubility of 44 mM (≈ 26.1 mg/mL). On Carbonic anhydrase 4, this molecule returned a Ki of 0.035 µM. At Carbonic anhydrase 1, this molecule came in with an inhibition constant Ki of 0.21 µM. The “Kin x10e3” value in data set [4] is 5.1 hr-1. In data set [6], this molecule displayed a logD of 2.354.

Turning to `Cn1nc(S(N)(=O)=O)s/c1=N/C(=O)CN(CCN(CC(=O)O)CC(=O)O)CC(=O)O`, the “Kin x10e3” value was 9.5 hr-1. Besides, in data set [5], the solubility came to 65 mM (≈ 30.5 mg/mL). At Carbonic anhydrase 4, this molecule had a Ki of 0.026 µM. Besides, the Ki on Carbonic anhydrase 1 was 0.215 µM. Further, the “Kin x10e3” value in [4] was 4.8 hr-1. In addition, the log distribution coefficient (logD) in data set [6] is on record as 1.75.

The values are drawn from ChEMBL document CHEMBL1135903 (J Med Chem, 2002).
